The values that follow come from US20240091328A1, “FORMULATIONS AND METHODS FOR MHC-I RESTRICTED EPITOPE IMMUNIZATION” (The Research Foundation for The State University of New York, priority 2021, published 2024).

This assay deals with IFN-γ. As to the kind of experiment: In vivo peptide micro-library screening, IFN-γ ELISA of re-stimulated splenocytes relative to A5. Details: species or system mice. Conditions: rank among 100 micro-library peptides; IFN-γ on re-stimulation relative to A5; 5 peptides plus A5 with CPQ. The method, then:
Mice were immunized with 5 library peptides at a time, along with the A5 peptide, with all peptides combined and admixed with CPQ. After two intramuscular injections, splenocytes were collected, and then re-stimulated with each of the synthetic micro-library peptides, individually. Production of IFN-γ was measured and peptide immunogenicity was determined relative to the A5 peptide, which served as in internal control that could induce strong Ag-specific CD8^+ T cell responses.
For Ag screening, multivalent vaccine composed of peptide with the same MHC-I haplotypes (H-2L^d, H-2D^d, or H-2K^d) and the internal A5 peptide were admixed with CPQ. After immunization, only ˜10% of MHC-I binding peptides induced T cells in splenocytes that produced IFN-γ with peptide re-stimulation, and none were nearly as effective as A5 (FIG. 16B). The most highly immunogenic peptides only produced about a quarter of the level of IFN-γ relative to A5. […] It is also feasible that immunization with higher antigen doses of single individual peptides could have induced stronger immunogenic responses, although this would decrease the in vivo peptide micro-library screening throughput.
IFN-γ ELISA: 2.5×10^5 splenocytes were seeded in a 96 wells plate and stimulated with 10 μg/mL antigens for 72 hr. 50 μL of supernatant was collected from each well and subjected to Interferon gamma ELISA (Thermofisher; catalog: BMS606TEN) according to manufacturer protocol.
In general terms: In an ELISA, binding on a coated surface is turned into a signal by an enzyme label.

Take “H6-RGEYEDPYY-ERR (HHHHHHRGEYEDPYYERR; CT56)”: the Experimental rank is given as 35.

Consider “H6-PGPIKCVPI-ERR (HHHHHHPGPIKCVPIERR; CT3)”, for which the Experimental rank is recorded as 22. “H6-PGGFQEFNF-ERR (HHHHHHPGGFQEFNFERR; CT89)”: the Experimental rank is 25.

Turning to “H6-TGPYVMMIG-ERR (HHHHHHTGPYVMMIGERR; CT6)”, the Experimental rank is on record as 84. With “H6-TPPSIFSTQ-ERR (HHHHHHTPPSIFSTQERR; CT49)”, the Experimental rank stood at 73.

Take “H6-RKIKGPYWL-ERR (HHHHHHRKIKGPYWLERR; CT91)”: the Experimental rank is given as 52. For “H6-PYLTALDDL-ERR (HHHHHHPYLTALDDLERR; CT28)”, the Experimental rank is listed as 82. As to “H6-FPPQNMFEF-ERR [CT43] (HHHHHHFPPQNMFEFERR; CT43)”, the Experimental rank was determined as 15. Then “H6-PPQNMFEFP-ERR (HHHHHHPPQNMFEFPERR; CT82)”, with 67; and “H6-SRLQSLTLI-ERR (HHHHHHSRLQSLTLIERR; CT72)”, with 7; and “H6-IPDEAMVKL-ERR (HHHHHHIPDEAMVKLERR; CT16)”, with 33.

As to “H6-GPPPHSAPC-ERR (HHHHHHGPPPHSAPCERR; H6 and ERR flanks; CT47)”, the Experimental rank was 71. Turning to “H6-YYMRDVIAI-ERR (HHHHHHYYMRDVIAIERR; CT33)”, the Experimental rank was found to be 96.

In the case of “H6-KYFQAGKYE-ERR (HHHHHHKYFQAGKYEERR; CT69)”, the Experimental rank is 21.

As for “H6-LLYNAVVWL-ERR (HHHHHHLLYNAVVWLERR; CT93)”, the Experimental rank came out at 27. As for “H6-TALPVGFSL-ERR (HHHHHHTALPVGFSLERR; CT90)”, the Experimental rank stood at 79. Consider “H6-KYYAVNFSM-ERR [CT8] (HHHHHHKYYAVNFSMERR; CT8)”, for which the Experimental rank stood at 88. Take “H6-IYSRTTDVL-ERR (HHHHHHIYSRTTDVLERR; CT76)”: the Experimental rank was 64.

For “H6-QFPSESEFF-ERR (HHHHHHQFPSESEFFERR; CT5)”, the Experimental rank worked out at 18. In the case of “H6-LFLKSPTAL-ERR (HHHHHHLFLKSPTALERR; CT34)”, the Experimental rank amounted to 99. As to “H6-AYVNATGEV-ERR (HHHHHHAYVNATGEVERR; CT13)”, the Experimental rank worked out at 95. “H6-TPHVLWSWG-ERR (HHHHHHTPHVLWSWGERR; CT97)”: the Experimental rank is listed as 4. As for “H6-CQIAMVHYI-ERR (HHHHHHCQIAMVHYIERR; CT61)”, the Experimental rank is 10. In the case of “H6-FPPQNMFEF-ERR [CT14] (HHHHHHFPPQNMFEFERR; CT14)”, the Experimental rank is on record as 98. Take “H6-VYFVAGVRV-ERR (HHHHHHVYFVAGVRVERR; H6 and ERR flanks; CT71)”: the Experimental rank stood at 3. Next, “H6-SGPIGPPEI-ERR (HHHHHHSGPIGPPEIERR; CT48)”: 70; “H6-DSPNRRFTE-ERR (HHHHHHDSPNRRFTEERR; CT60)”: 20; “H6-YGKGVNFYL-ERR (HHHHHHYGKGVNFYLERR; CT50)”: 68. For the substance “H6-LVPNRFSRL-ERR (HHHHHHLVPNRFSRLERR; CT45)”, the Experimental rank stood at 13.

With “H6-LFVTVLEVI-ERR (HHHHHHLFVTVLEVIERR; CT26)”, the Experimental rank is 91.

Take H6-SYIMAICGM-ERR [CT67]: the Experimental rank is on record as 36. Then “H6-IGQMLQTHF-ERR (HHHHHHIGQMLQTHFERR; CT84)”, with 49; and “H6-TYLQPAQAQ-ERR (HHHHHHTYLQPAQAQERR; CT75)”, with 12; and “H6-KGPRNIQLD-ERR (HHHHHHKGPRNIQLDERR; CT57)”, with 48. Then “H6-GRPSIDNVL-ERR (HHHHHHGRPSIDNVLERR; CT51)”, with 37; and “H6-SSKHRRSFV-ERR (HHHHHHSSKHRRSFVERR; CT38*)”, with 45. On to “H6-GPPGGFQEF-ERR [CT99] (HHHHHHGPPGGFQEFERR; CT99)”, for which the Experimental rank came to 53. On to “H6-GHVAAGGAL-ERR (HHHHHHGHVAAGGALERR; CT79)”, for which the Experimental rank is 46. For the substance “H6-TPPSHKLPL-ERR (HHHHHHTPPSHKLPLERR; CT55)”, the Experimental rank is reported as 23. Next, “H6-SEGNSSHTI-ERR (HHHHHHSEGNSSHTIERR; CT81) [CT80]”: 31; “H6-FYTSYLRRL-ERR (HHHHHHFYTSYLRRLERR; CT74)”: 76. Take “H6-SYATYLQPA-ERR (HHHHHHSYATYLQPAERR; CT63)”: the Experimental rank is reported as 19. Next, “H6-PYFRLEHYL-ERR (HHHHHHPYFRLEHYLERR; CT27)”: 87; “H6-VYFTINVNL-ERR (HHHHHHVYFTINVNLERR; CT32)”: 43. Next, “H6-IPIFHILNT-ERR (HHHHHHIPIFHILNTERR; CT85)”: 8; “H6-PTPRRFSPP-ERR (HHHHHHPTPRRFSPPERR; CT52)”: 24. As to “H6-RGGPKKCAL-ERR (HHHHHHRGGPKKCALERR; CT53)”, the Experimental rank stood at 32. “H6-KGPYWLEVK-ERR (HHHHHHKGPYWLEVKERR; CT44)”: the Experimental rank is reported as 44. For “H6-LGYRYWTGI-ERR (HHHHHHLGYRYWTGIERR; CT92)”, the Experimental rank amounted to 41.

In the case of “H6-RPIKGPRNI-ERR (HHHHHHRPIKGPRNIERR; CT18)”, the Experimental rank came out at 47.

Regarding “H6-SYTEQNVKL-ERR (HHHHHHSYTEQNVKLERR; CT30)”, the Experimental rank is reported as 85. For “H6-SYIKKLKEL-ERR (HHHHHHSYIKKLKELERR; CT29)”, the Experimental rank came out at 90.

For the substance “H6-DPFATPLSM-ERR (HHHHHHDPFATPLSMERR; CT21)”, the Experimental rank is given as 83. Consider “H6-MLARKQFDL-ERR (HHHHHHMLARKQFDLERR; CT86)”, for which the Experimental rank worked out at 60.

Turning to “H6-VVEANWTML-ERR (HHHHHHVVEANWTMLERR; CT96)”, the Experimental rank turned out to be 2. Next, “H6-GPPGGFQEF-ERR [CT4] (HHHHHHGPPGGFQEFERR; CT4)”: 63. With “H6-KYYAVNFSM-ERR [CT95] (HHHHHHKYYAVNFSMERR; CT95)”, the Experimental rank is 59.

“H6-RHNTMLKAM-ERR (HHHHHHRHNTMLKAMERR; CT66)”: the Experimental rank is reported as 61. Turning to “H6-SFQPTADEL-ERR (HHHHHHSFQPTADELERR; CT62)”, the Experimental rank came to 11. As for “H6-GYEAVVRLL-ERR (HHHHHHGYEAVVRLLERR; CT23)”, the Experimental rank is reported as 77. “H6-HHTMMVQAI-ERR (HHHHHHHHTMMVQAIERR; CT24)”: the Experimental rank turned out to be 86. “H6-EPQVEPLDF-ERR (HHHHHHEPQVEPLDFERR; CT15)”: the Experimental rank came out at 81.

For the substance “H6-VVLETFYDL-ERR (HHHHHHVVLETFYDLERR; CT19)”, the Experimental rank is on record as 56.
